Laboratory results: ChEMBL document CHEMBL1151309, “Quanolirones I and II, two new human cytomegalovirus protease inhibitors produced by Streptomyces sp. WC76535” (J Nat Prod, 1998)

Key:
[1] = Inhibition of GST-fused HCMV protease expressed in Escherichia coli by scintillation counting; design: species or system Human betaherpesvirus 5
[2] = test system: M109; test: Cytotoxicity against mouse M109 cells by XTT assay; format: functional, cell-based

SMILES: Cc1cc(O)c2cc3c(c(O)c2c1)C(=O)c1ccc([C@@H]2C[C@H](O[C@H]4CC[C@H](O[C@H]5C[C@@H](O[C@H]6CC[C@H](O)[C@H](C)O6)[C@H](O)[C@H](C)O5)[C@H](C)O4)[C@@H](O)[C@@H](C)O2)c(O)c1C3=O
- IC50 [1]: 52 µM
- IC50 [2]: 12 µM

SMILES: Cc1cc(O)c2cc3c(c(O)c2c1)C(=O)c1ccc([C@H]2C[C@@H](O[C@@H]4CC[C@@H](O)[C@@H](C)O4)[C@H](O)[C@@H](C)O2)c(O)c1C3=O [QUANOLIRONE II]
- IC50 [1]: 35 µM
- IC50 [2]: 89 µM

SMILES: Cc1cc(O)c2cc3c(c(O)c2c1)C(=O)c1ccc([C@H]2C[C@@H](O[C@H]4CC[C@H](O[C@H]5C[C@@H](O)[C@H](O)[C@@H](C)O5)[C@H](C)O4)[C@H](O)[C@@H](C)O2)c(O)c1C3=O [QUANOLIRONE I]
- IC50 [1]: 14 µM
- IC50 [2]: 14 µM
